Activity calls are given as the source filed them. The rule behind the calls is not given here.
Tests used:
[1] = system: A549; test: Cytotoxicity against human A549 cells assessed as reduction in cell viability incubated for 48 hrs by MTT assay; format: functional, cell-based; settings: A549, 48 h
[2] = system: A549; test: Induction of apoptosis in human A549 cells assessed as viable cells at 10 uM incubated for 48 hrs by AnnexinV-FITC/PI staining based flow cytometry (reference value: 91.5 to 92.9%); format: functional; settings: read-out: Activity
[3] = system: A549; test: Induction of apoptosis in human A549 cells assessed as increase in cleaved caspase-9 expression level at 3 to 10 uM incubated for 48 hrs by western blot analysis; format: functional, cell-based; settings: dose 3-10 µM
[4] = system: A549; test: Induction of apoptosis in human A549 cells assessed as increase in cleaved caspase-3 expression level at 3 to 10 uM incubated for 48 hrs by western blot analysis; format: functional, cell-based; settings: dose 3-10 µM
[5] = system: A549; test: Induction of apoptosis in human A549 cells assessed as viable cells at 3 uM incubated for 48 hrs by AnnexinV-FITC/PI staining based flow cytometry (reference value: 91.5 to 92.9%); format: functional; settings: read-out: Activity
[6] = system: A549; test: Induction of intracellular ROS generation in human A549 cells incubated for 48 hrs by H2DCF-DA staining based flow cytometry; format: functional, cell-based; settings: dose 3-10 µM, DDE = dose-dependent effect
[7] = system: A549; test: Induction of apoptosis in human A549 cells assessed as necrotic cells at 10 uM incubated for 48 hrs by AnnexinV-FITC/PI staining based flow cytometry (reference value: 2.23 to 4.25%); format: functional
[8] = Cytotoxicity against rat Primary hepatocytes assessed as cell viability at 25 uM incubated for 12 hrs; format: toxicity, cell-based, Hepatocyte; settings: read-out: Activity
[9] = system: A549; test: Induction of apoptosis in human A549 cells assessed as necrotic cells at 3 uM incubated for 48 hrs by AnnexinV-FITC/PI staining based flow cytometry (reference value: 2.23 to 4.25%); format: functional
[10] = system: A549; test: Induction of apoptosis in human A549 cells assessed as early apoptotic cells at 3 uM incubated for 48 hrs by AnnexinV-FITC/PI staining based flow cytometry (reference value: 2.07 to 3.24%); format: functional
[11] = system: A549; test: Induction of apoptosis in human A549 cells assessed as decrease in mitochondrial membrane potential by measuring reduction in ratio of red to green fluorescence intensity at 3 to 10 uM incubated for 48 hrs by JC-1 staining based flow cytometry; format: functional, cell-based; settings: dose 3-10 µM
[12] = system: A549; test: Induction of apoptosis in human A549 cells assessed as late apoptotic cells at 3 uM incubated for 48 hrs by AnnexinV-FITC/PI staining based flow cytometry (reference value: 1.58 to 2.23%); format: functional
[13] = system: A549; test: Induction of apoptosis in human A549 cells assessed as early apoptotic cells at 10 uM incubated for 48 hrs by AnnexinV-FITC/PI staining based flow cytometry (reference value: 2.07 to 3.24%); format: functional
[14] = system: NCI-H460; test: Cytotoxicity against human NCI-H460 cells assessed as reduction in cell viability incubated for 48 hrs by MTT assay; format: functional, cell-based; settings: NCI-H460, 48 h
[15] = system: A549; test: Induction of cell cycle arrest in human A549 cells assessed as accumulation of cells at G2/M phase incubated for 48 hrs by PI staining based flow cytometry (reference value: 9.7 to 17.2%); format: functional
[16] = system: A549; test: Induction of apoptosis in human A549 cells assessed as late apoptotic cells at 10 uM incubated for 48 hrs by AnnexinV-FITC/PI staining based flow cytometry (reference value: 1.58 to 2.23%); format: functional

SMILES	IC50 [1]	IC50 [14]	also measured
C=C1C(=O)O[C@H]2CC3=C[C@H](C/C(C)=C/[C@@H](OC(=O)CCCCCCC(=O)O[C@@H]4/C=C(\C)C[C@H]5C=C(C[C@@H]6OC(=O)C(=C)[C@H]64)C(=O)O5)[C@H]12)OC3=O	0.7 µM	3.2 µM	viability at 10 µM [2]: 14.6%; Activity [3]: Active; Activity [4]: Active; viability at 3 µM [5]: 63.7%; Activity [6]: Dde; Activity [7]: 10.4%; viability at 12 h, 25 µM [8]: 59.2%; Activity [9]: 0.14%; Activity [10]: 35.5%; Activity [11]: Active; Activity [12]: 0.7%; Activity [13]: 30.9%; Activity [15]: 62.4%; Activity [16]: 44.1%
C=C1C(=O)O[C@H]2CC3=C[C@H](C/C(C)=C/[C@@H](OC(=O)/C=C/c4ccccc4)[C@H]12)OC3=O	4.8 µM	> 10 µM	
C=C1C(=O)O[C@H]2CC3=C[C@H](C/C(C)=C/[C@@H](OC(=O)C4CCC(F)(F)CC4)[C@H]12)OC3=O	6.4 µM	> 10 µM	
C=C1C(=O)O[C@H]2CC3=C[C@H](C/C(C)=C/[C@@H](OC(=O)c4ccc(C(=O)O[C@@H]5/C=C(\C)C[C@H]6C=C(C[C@@H]7OC(=O)C(=C)[C@H]75)C(=O)O6)s4)[C@H]12)OC3=O	3.6 µM	5.8 µM	
C=C1C(=O)O[C@H]2CC3=C[C@H](C/C(C)=C/[C@@H](OC(=O)CCl)[C@H]12)OC3=O	> 10 µM	> 10 µM	
C=C1C(=O)O[C@H]2CC3=C[C@H](C/C(C)=C/[C@@H](OC(=O)CCCCC)[C@H]12)OC3=O	> 10 µM	5.9 µM	
C=C1C(=O)O[C@H]2CC3=C[C@H](C/C(C)=C/[C@@H](OC(=O)c4ccncc4)[C@H]12)OC3=O	> 10 µM	5.6 µM	
C=C1C(=O)O[C@H]2CC3=C[C@H](C/C(C)=C/[C@@H](OC(=O)/C=C\c4ccc5c(c4)OCO5)[C@H]12)OC3=O	6.1 µM	> 10 µM	
C=C1C(=O)O[C@H]2CC3=C[C@H](C/C(C)=C/[C@@H](OC(=O)c4ccc([N+](=O)[O-])cc4)[C@H]12)OC3=O	> 10 µM	> 10 µM	
C=C1C(=O)O[C@H]2CC3=C[C@H](C/C(C)=C/[C@@H](OC(=O)CCCC(=O)O[C@@H]4/C=C(\C)C[C@H]5C=C(C[C@@H]6OC(=O)C(=C)[C@H]64)C(=O)O5)[C@H]12)OC3=O	5.6 µM	> 10 µM	
C=C1C(=O)O[C@H]2CC3=C[C@H](C/C(C)=C/[C@@H](OC(=O)CCC(=O)O[C@@H]4/C=C(\C)C[C@H]5C=C(C[C@@H]6OC(=O)C(=C)[C@H]64)C(=O)O5)[C@H]12)OC3=O	> 10 µM	> 10 µM	
C=C1C(=O)O[C@H]2CC3=C[C@H](C/C(C)=C/[C@@H](OC(=O)/C=C/c4ccc5c(c4)OCO5)[C@H]12)OC3=O	4.6 µM	9.3 µM	
C=C1C(=O)O[C@H]2CC3=C[C@H](C/C(C)=C/[C@@H](OC(=O)/C=C/c4cccc(OC)c4)[C@H]12)OC3=O	6.2 µM	> 10 µM	
C=C1C(=O)O[C@H]2CC3=C[C@H](C/C(C)=C/[C@@H](OC(=O)C(C)(C)CC)[C@H]12)OC3=O	2.2 µM	6.1 µM	
C=C1C(=O)O[C@H]2CC3=C[C@H](C/C(C)=C/[C@@H](OC(=O)CC(C)C)[C@H]12)OC3=O	2.5 µM	3.8 µM	
C=C1C(=O)O[C@H]2CC3=C[C@H](C/C(C)=C/[C@@H](OC(=O)CCSSCCC(=O)O[C@@H]4/C=C(\C)C[C@H]5C=C(C[C@@H]6OC(=O)C(=C)[C@H]64)C(=O)O5)[C@H]12)OC3=O	3.1 µM	7.8 µM	
CO[C@H]1C(=O)O[C@H]2CC3=C[C@H](C/C(C)=C/[C@@H](O)[C@@H]21)OC3=O	> 10 µM	> 10 µM	

SMILES	IC50 [1]	IC50 [14]	also measured
C=C1C(=O)O[C@H]2CC3=C[C@H](C/C(C)=C/[C@@H](OC(=O)C45CCC(C)(C(=O)O4)C5(C)C)[C@H]12)OC3=O	3.4 µM	2 µM	
C=C1C(=O)O[C@H]2CC3=C[C@H](C/C(C)=C/[C@@H](OC(=O)/C=C/c4ccc(C(F)(F)F)cc4)[C@H]12)OC3=O	5.9 µM	1.4 µM	
C=C1C(=O)O[C@H]2CC3=C[C@H](C/C(C)=C/[C@@H](OC(=O)c4ccc(C(=O)O[C@@H]5/C=C(\C)C[C@H]6C=C(C[C@@H]7OC(=O)C(=C)[C@H]75)C(=O)O6)cc4)[C@H]12)OC3=O	1.5 µM	0.7 µM	
C=C1C(=O)O[C@H]2CC3=C[C@H](C/C(C)=C/[C@@H](OC(=O)C4CC4)[C@H]12)OC3=O	3.2 µM	3 µM	
C=C1C(=O)O[C@@H]2C3O[C@]3(C)CC/C=C(\C)CC[C@@H]12 (stereo partly specified)	> 10 µM	9.6 µM	
C=C1C(=O)O[C@H]2CC3=C[C@H](C/C(C)=C/[C@@H](OC(=O)CCCCBr)[C@H]12)OC3=O	> 10 µM	> 10 µM	
C=C1C(=O)O[C@H]2CC3=C[C@H](C/C(C)=C/[C@@H](OC(=O)/C=C/c4cccs4)[C@H]12)OC3=O	4.3 µM	2.9 µM	viability at 10 µM [2]: 38.2%; Activity [3]: Active; Activity [4]: Active; viability at 3 µM [5]: 83.2%; Activity [6]: Dde; Activity [7]: 10.6%; viability at 12 h, 25 µM [8]: 96.7%; Activity [9]: 0.53%; Activity [10]: 14.8%; Activity [11]: Active; Activity [12]: 1.45%; Activity [13]: 27.3%; Activity [15]: 32.6%; Activity [16]: 23.9%
C=C1C(=O)O[C@H]2CC3=C[C@H](C/C(C)=C/[C@@H](OC(=O)/C=C/c4ccncc4)[C@H]12)OC3=O	4 µM	2.1 µM	
C=C1C(=O)O[C@H]2CC3=C[C@H](C/C(C)=C/[C@@H](OC(=O)C4(NC(=O)OCc5ccccc5)CC4)[C@H]12)OC3=O	5.8 µM	3 µM	
C=C1C(=O)O[C@H]2CC3=C[C@H](C/C(C)=C/[C@@H](OC(=O)c4ccc(C(F)(F)F)cc4)[C@H]12)OC3=O	> 10 µM	> 10 µM	
C=C1C(=O)O[C@H]2CC3=C[C@H](C/C(C)=C/[C@@H](OC(=O)CC4CCCCC4)[C@H]12)OC3=O	6.9 µM	2 µM	
C=C1C(=O)O[C@H]2CC3=C[C@H](C/C(C)=C/[C@@H](OC(=O)c4ccc(C(C)=O)cc4)[C@H]12)OC3=O	2.3 µM	2.2 µM	
C=C1C(=O)O[C@H]2CC3=C[C@H](C/C(C)=C/[C@@H](OC(=O)c4ccc(-c5ccccc5)cc4)[C@H]12)OC3=O	4.6 µM	3.5 µM	
C=C1C(=O)O[C@H]2CC3=C[C@H](C/C(C)=C/[C@@H](OC(=O)CCCCC(=O)O[C@@H]4/C=C(\C)C[C@H]5C=C(C[C@@H]6OC(=O)C(=C)[C@H]64)C(=O)O5)[C@H]12)OC3=O	2.1 µM	8.1 µM	
C=C1C(=O)O[C@@H]2/C=C(\C)C[C@H]3C=C(C[C@H](OC(=O)/C(C)=C\C)[C@@H]12)C(=O)O3	> 10 µM	> 10 µM	
C=C1C(=O)O[C@H]2CC3=C[C@H](C/C(C)=C/[C@@H](O)[C@H]12)OC3=O	> 10 µM	> 10 µM	
C=C1C(=O)O[C@H]2CC3=C[C@H](C/C(C)=C/[C@@H](OC(=O)/C=C/c4ccc(N(C)C)cc4)[C@H]12)OC3=O	> 10 µM	1.3 µM	

Source: ChEMBL document CHEMBL5136996, “Semisynthesis and Non-Small-Cell Lung Cancer Cytotoxicity Evaluation of Germacrane-Type Sesquiterpene Lactones from Elephantopus scaber” (J Nat Prod, 2022)
